Consider 2 compounds from US20240284906A1, “HERBICIDAL COMPOSITIONS CONTAINING CINMETHYLINE AND ETHOFUMESATE” (BAYER AKTIENGESELLSCHAFT, priority 2021, published 2024).

In one assay the test system is Veronica persica. The assay can be described thus: Pre-emergence weed control, pot trial. In kind it is in vivo. To be noted: pre-emergence (BBCH 00), 27 DAA, scale 0-100. As to the method: (§1) The following plant species were selected for the tests:
(§2) The seeds of the abovementioned biotypes were sown in 8 cm pots (LSI; pH 7.4; % C org 2.2). The temperature was kept at about 23°/15° C. day/night. After the herbicides had been applied (300 l water/ha), the pots were irrigated from beneath as required. Two trials were conducted. In a pre-emergence trial, the herbicides were applied directly after sowing at the BBCH 00 growth stage. In a post-emergence trial, the herbicides were deployed at the BBCH 11-12 growth stage.
(§3) The active herbicidal ingredient cinmethylin was used as commercial emulsifiable concentrate (EC) LUMIMAX. Ethofumesate was used in the form of the commercial suspension concentrate (SC) Nortron. A methylated seed oil (Mero) was added to the spray liquids in an amount of 1 l/ha in order to assure good retention characteristics.
(§4) The percentage of weed control (2 repetitions) was rated 27 days after the application of herbicide (DAA) on a scale of 0-100. A rating of 0 means no control, and 100 means complete control.
(§5) According to Colby, synergistic effects of active herbicidal ingredients are indicated when the measured efficacy is higher than that expected, which is calculated by its formula for 2-substance mixtures: EC=A+B−(A×B)/100

Another assay relates to Avena fatua. The experiment in a line: Pre-emergence weed control, pot trial. In kind it is in vivo. The conditions noted are these: pre-emergence (BBCH 00), 27 DAA, scale 0-100. The method, then:
as §1, §2, §3, §4, §5

A further assay deals with Abuthilon theophrasti. The assay can be described thus: Post-emergence weed control, pot trial. In kind it is in vivo. The conditions noted are these: post-emergence (BBCH 11-12), 27 DAA, scale 0-100. The method, then:
as §1, §2, §3, §4, §5

For the next assay, the system named is Lolium rigidum. The assay can be described thus: Post-emergence weed control, pot trial. To be noted: post-emergence (BBCH 11-12), 27 DAA, scale 0-100. In kind it is in vivo. The method, then: as §1, §2, §3, §4, §5
For the next assay, the system named is Alopecurus myosuroides. The assay can be described thus: Post-emergence weed control, pot trial. It is filed as in vivo. To be noted: post-emergence (BBCH 11-12), 27 DAA, scale 0-100. The method, then: as §1, §2, §3, §4, §5
For assay [1], the system named is MATIN. The experiment in a line: Pre-emergence weed control, pot trial. It is filed as in vivo, Matricaria inodora. To be noted: pre-emergence (BBCH 00), 27 DAA, scale 0-100. As to the method: as §1, §2, §3, §4, §5
Assay [2] deals with MATIN. The assay can be described thus: Post-emergence weed control, pot trial. In kind it is in vivo, Matricaria inodora. To be noted: post-emergence (BBCH 11-12), 27 DAA, scale 0-100. As to the method:
as §1, §2, §3, §4, §5

As for `CCOC1Oc2ccc(OS(C)(=O)=O)cc2C1(C)C` (centres unmarked) [Ethofumesate], the “Efficacy (percentage of weed control) VERPE” value in the assay with Veronica persica (10 g ai/ha) was determined as 0%. In the assay on Avena fatua (20 g ai/ha), the “Efficacy (percentage of weed control) AVEFA” value is recorded as 0%. For the same compound, in the assay with Abuthilon theophrasti (20 g ai/ha), the “Efficacy (percentage of weed control) ABUTH” value was determined as 0%. In addition, the “Efficacy (percentage of weed control) LOLRI” value with Lolium rigidum (20 g ai/ha) was 0%. In addition, the “Efficacy (percentage of weed control) ALOMY” value in the assay with Alopecurus myosuroides (20 g ai/ha) is reported as 0%. Also, the “Efficacy (percentage of weed control) MATIN” value was 0% with MATIN [1] (10 g ai/ha) and 10% in the assay on MATIN [2] (50 g ai/ha).

Regarding `Cc1ccccc1CO[C@@H]1C[C@]2(C(C)C)CC[C@@]1(C)O2` (racemic) [Cinmethylin, (+/−)-2-exo-(2-methylbenzyloxy)-1-methyl-4-isopropyl-7-oxabicyclo[2.2.1]heptane], the “Efficacy (percentage of weed control) VERPE” value in the assay with Veronica persica (50 g ai/ha) came to 20%. The “Efficacy (percentage of weed control) AVEFA” value in the assay on Avena fatua (100 g ai/ha) was found to be 70%. Besides, in the assay on Abuthilon theophrasti (100 g ai/ha), the “Efficacy (percentage of weed control) ABUTH” value is recorded as 35%. Also, the “Efficacy (percentage of weed control) LOLRI” value with Lolium rigidum (100 g ai/ha) was 63%. For the same compound, the “Efficacy (percentage of weed control) ALOMY” value with Alopecurus myosuroides (100 g ai/ha) stood at 78%. Moreover, the “Efficacy (percentage of weed control) MATIN” value is on record as 70% with MATIN [1] (50 g ai/ha) and 20% in the assay on MATIN [2] (25 g ai/ha).
